In US20090071883A1 (priority 2007, published 2009):

How the values were obtained:
[1] = test system: Erwinia carotovora; type: cell-based
[2] = test system: Cryptosporidium parvum oocysts; conditions: pH 7; cited from earlier work

Structure (SMILES)	mean log cfu Erwinia carotovora [1]	approximate CT values for 99% inactivation [2]
[O][Cl+][O-] [chlorine dioxide]	0.0 log cfu	~78
NCl [monochloramine]	–	~7200
